Source: patent publication US20080249001A1, “AGENTS THAT ALLEVIATE SIDE-EFFECTS CAUSED BY CHEMOTHERAPY AGENTS” (priority 2006, published 2008)
Where a name gives a salt, the structure may show the parent alone. Bridges are numbered along the chain shown (N, C = ends). Where no end group is shown, it is not given here.

Assays:
[1] = tested on: mouse bone-marrow cells (CFU-E colonies); test: in vitro CFU-E colony assay in methylcellulose semisolid medium under the existence of EPO; format: cell-based; conditions: for CFU-E inhibiting action (inhibition of expression of CFU-E colonies) / CFU-E inhibiting action (expression of CFU-E colonies): 48 hours
Protocol: (§1) More specifically, the in vitro colony assay method wherein a methylcellulose semisolid medium is used is generally used as the method for determining CFU-E. It is the most suitable experimental system for finding the action of improving the decrease of CFU-E caused by chemotherapy agents. […] In the oral administration to rats, the single administration of 1.2 g/kg of arginine makes the blood concentration thereof reach around 600 μM. Therefore, the increase of CFU-E dependent on the administered dose is expected in the oral administration. In human beings, too, it is expected that the number of CFU-E increases depending on the blood concentration of arginine by the oral administration.
The in vitro CFU-E colony assay was conducted as follows. After making a male BDF-1 mouse of 11 weeks old (by Charles River Laboratories Japan, Inc.) die by the cervical dislocation method, the bone-marrow cells were isolated from the thighbone and suspended in the IMDM medium (by Invitrogen Corporation) which contained 10% FCS (by JRH Biosciences). The bone-marrow cells were centrifuged at 1500 rpm for 10 minutes at 4° C. Then, the precipitated bone-marrow cells were substituted on the IMDM medium without an amino acid, and the number of the cells was determined. 1 mL of a methylcellulose semisolid medium wherein the bone-marrow cells were suspended in the IMDM medium of ⅓ concentration (0.03, 0.1, 0.3 and 1.0 U/mL of rHuEPO by Chugai Pharmaceutical Co., Ltd.; 100 μM of 2-mercaptoethanol by Wako Pure Chemical Industries, Ltd.; 15% FCS by JRH Biosciences; 0.8% methylcellulose, IMDM solution M3134 containing methylcellulose by StemCell Technologies Inc.; 1% BSA by Sigma-Aldrich Japan K.K.; and bone-marrow cells 2.5×10^5/mL) was added to a dish of 3.5 cm in diameter (Nalge Nunc International K.K.). After the medium was cultured at 37° C. under 5% CO2 for 48 hours, the number of CFU-E colonies was determined by using an inverted microscope. […] Data is indicated as the average value.
The in vitro CFU-E colony assay was conducted in the EPO concentration of the maximal action amount thereof. […] Then, the number of CFU-E colonies was determined by using an inverted microscope. […] Data is indicated as the average value.
The CFU-E colony assay was conducted by the same method as that of Example 1. […] Data is indicated as the average value. The vertical axis is the relative value (%) when regarding the number of CFU-E colonies in the control case as 100%.
The in vitro CFU-E colony assay was conducted in the EPO concentration of the maximal action amount thereof. The bone-marrow cells were prepared by the same method as that of Example 1, using a male BDF-1 mouse of 12 weeks old (by Charles River Laboratories Japan, Inc.). Irinotecan hydrochloride was further added to a methylcellulose semisolid medium wherein the bone-marrow cells were suspended in the IMDM medium of ⅓ concentration (1.0 U/mL of rHuEPO by Chugai Pharmaceutical Co., Ltd.; 100 μM of 2-mercaptoethanol by Wako Pure Chemical Industries, Ltd.; 30% FCS by JRH Biosciences; 0.8% methylcellulose, IMDM solution M3134 containing methylcellulose by StemCell Technologies Inc.; 1% BSA by Sigma-Aldrich Japan K.K.; and bone-marrow cells 2.5×10^5/mL), so that the final concentration of irinotecan hydrochloride became 1 μM and 10 μM. After the medium was cultured at 37° C. under 5% CO2 for 48 hours, the number of CFU-E colonies was determined by using an inverted microscope. […] Data is indicated as the average value.
The CFU-E colony assay was conducted by the same method as that of above (1), using a male BDF-1 mouse of 11 weeks old (by Charles River Laboratories Japan, Inc.). The medium to which only 3 μM of irinotecan hydrochloride in its final concentration was added and the medium to which irinotecan hydrochloride in the same concentration as above and 600 uM of arginine were simultaneously further added were prepared and the number of CFU-E colonies was determined. […]

[2] = tested on: mouse bone-marrow cells (CFU-E colonies); test: in vitro CFU-E colony assay under the existence of EPO mimic peptide EMP1; format: cell-based
Protocol: The bone-marrow cells were prepared by the same method as that of Example 1, using a male BDF-1 mouse of 10 weeks old (by Charles River Laboratories Japan, Inc.). 1 mL of a methylcellulose semisolid medium wherein the bone-marrow cells were suspended in the IMDM medium of ⅓ concentration (1, 3, 10 and 30 μM of EMP1; 100 μM of 2-mercaptoethanol by Wako Pure Chemical Industries, Ltd.; 24% FCS by JRH Biosciences; 0.8% methylcellulose, IMDM solution M3134 containing methylcellulose by StemCell Technologies Inc.; 2% BSA by Sigma-Aldrich Japan K.K.; and bone-marrow cells 2×10^5/mL) was added to a dish of 3.5 cm in diameter (Nalge Nunc International K.K.). After the medium was cultured at 37° C. under 5% CO2 for 48 hours, the number of CFU-E colonies was determined by using an inverted microscope. […] Data is indicated as the average value.
The in vitro CFU-E colony assay was conducted in the EMP1 concentration of the maximal action amount thereof. The bone-marrow cells were prepared by the same method as that of Example 1, using a male BDF-1 mouse of 10 weeks old (by Charles River Laboratories Japan, Inc.). […] After each medium was cultured at 37° C. under 5% CO2 for 48 hours, the number of CFU-E colonies was determined by using an inverted microscope. […] Data is indicated as the average value. The vertical axis is the relative value (%) when regarding the number of CFU-E colonies in the control case as 100%.

[3] = blood concentration of arginine after oral administration to rats; format: in vivo; conditions: single administration of 1.2 g/kg
Protocol: as §1

For `CCc1c2c(nc3ccc(OC(=O)N4CCC(N5CCCCC5)CC4)cc13)-c1cc3c(c(=O)n1C2)COC(=O)[C@]3(O)CC` [irinotecan hydrochloride], the “CFU-E inhibiting action (inhibition of expression of CFU-E colonies)” value ([1]; 1 μM irinotecan hydrochloride, 1 U/mL EPO, FIG. 4) was 30% and the “CFU-E inhibiting action (expression of CFU-E colonies)” value ([1]; 10 μM irinotecan hydrochloride, 1 U/mL EPO, FIG. 4) was “nearly completely inhibited”.

In the case of `N=C(N)NCCC[C@H](N)C(=O)O` [arginine], the “number of CFU-E colonies improved on simultaneous addition of arginine” value ([2]; 600 μM arginine + 10 nM VP-16, 30 μM EMP1, relative value to control 100%, FIG. 7) is reported as ~90%, the “number of CFU-E colonies improved on simultaneous addition of arginine” value ([1]; 600 uM arginine + 10 nM VP-16, 1 U/mL EPO, relative value to control 100%, FIG. 3) is reported as ~90% and the “increase of number of CFU-E colonies as compared with single addition of irinotecan hydrochloride” value ([1]; 600 uM arginine + 3 μM irinotecan hydrochloride, 1 U/mL EPO, FIG. 5) is reported as ~30%. The blood concentration [3] was “around 600 μM”.

In the case of `COc1cc([C@@H]2c3cc4c(cc3[C@@H](O[C@@H]3O[C@@H]5CO[C@@H](C)O[C@H]5[C@H](O)[C@H]3O)[C@H]3COC(=O)[C@H]23)OCO4)cc(OC)c1O` [VP-16, etoposide], the “decrease of number of CFU-E colonies due to single addition” value ([2]; 10 nM VP-16 alone, 30 μM EMP1, relative to control 100%, FIG. 7) is reported as “about 30%”, the “CFU-E inhibiting action (inhibition of expression of CFU-E colonies)” value ([1]; 1 nM VP-16, 1 U/mL EPO, FIG. 2) is reported as 10% and the “CFU-E inhibiting action (inhibition of expression of CFU-E colonies)” value ([1]; 10 nM VP-16, 1 U/mL EPO, FIG. 2) is reported as 30%. The “CFU-E inhibiting action (expression of CFU-E colonies)” value ([1]; 100 nM VP-16, 1 U/mL EPO, FIG. 2) was “nearly completely inhibited”.

In the case of “GGTYSCHFGPLTWVCKPQGG-NH2, C6-C15 disulfide bonding (disulfide 6-15; N-terminus assumed; SMILES CC(C)C[C@@H]1NC(=O)[C@@H]2CCCN2C(=O)CNC(=O)[C@H](Cc2ccccc2)NC(=O)[C@H](Cc2c[nH]cn2)NC(=O)[C@@H](NC(=O)[C@H](CO)NC(=O)[C@H](Cc2ccc(O)cc2)NC(=O)[C@@H](NC(=O)CNC(=O)CN)[C@@H](C)O)CSSC[C@@H](C(=O)N[C@@H](CCCCN)C(=O)N2CCC[C@H]2C(=O)N[C@@H](CCC(N)=O)C(=O)NCC(=O)NCC(N)=O)NC(=O)[C@H](C(C)C)NC(=O)[C@H](Cc2c[nH]c3ccccc23)NC(=O)[C@H]([C@@H](C)O)NC1=O) [EMP1]”, the “maximal action amount (CFU-E colony formation)” value ([2]; EMP1 1, 3, 10 and 30 μM, 48 hours culture, FIG. 6) is reported as ≥ 10 µM.
